Data taken from ChEMBL document CHEMBL1201862, “PubChem BioAssay data set” (2004).
Calls of active or inactive are those of the source.

Key:
[1] = target: Beta-2 adrenergic receptor (Homo sapiens, UniProt P07550); experiment: ADRB2 activation measured by internalization – cell-based, FAP fluorogen, flow cytometry, cherry pick 1, dose response (AID 588763); format: functional
cells [2] = format: functional, cell-based
Cytochrome P450 2D6 = Cytochrome P450 2D6 (Homo sapiens, UniProt P10635);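 further: CYP2D6 member of a cytochrome P450 panel assay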
Cytochrome P450 2D6, sequence (P10635 whole entry): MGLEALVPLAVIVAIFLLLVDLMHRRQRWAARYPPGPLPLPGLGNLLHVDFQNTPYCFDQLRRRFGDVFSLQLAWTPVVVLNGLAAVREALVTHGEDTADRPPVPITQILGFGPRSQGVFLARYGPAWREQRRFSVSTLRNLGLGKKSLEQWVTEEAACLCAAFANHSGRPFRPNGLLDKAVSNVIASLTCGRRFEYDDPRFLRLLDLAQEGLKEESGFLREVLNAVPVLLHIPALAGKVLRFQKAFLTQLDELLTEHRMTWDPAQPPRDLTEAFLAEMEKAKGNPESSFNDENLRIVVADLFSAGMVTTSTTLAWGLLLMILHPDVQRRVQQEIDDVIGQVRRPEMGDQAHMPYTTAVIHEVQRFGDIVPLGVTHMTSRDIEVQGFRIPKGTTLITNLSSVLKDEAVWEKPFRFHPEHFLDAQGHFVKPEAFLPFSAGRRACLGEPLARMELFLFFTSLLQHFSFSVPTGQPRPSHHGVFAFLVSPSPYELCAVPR

cells [3] = format: functional, cell-based; remark: listed apart in the source
Cytochrome P450 2C19 = Cytochrome P450 2C19 (Homo sapiens, UniProt P33261); experiment: Cytochrome panel assay with activity outcomes. Panel member name: p450-cyp2c19 Compounds with AC50 equal or less than 10 uM are considered active; format: functional; settings: read-out: AC50
Cytochrome P450 2C19, sequence (P33261 whole entry): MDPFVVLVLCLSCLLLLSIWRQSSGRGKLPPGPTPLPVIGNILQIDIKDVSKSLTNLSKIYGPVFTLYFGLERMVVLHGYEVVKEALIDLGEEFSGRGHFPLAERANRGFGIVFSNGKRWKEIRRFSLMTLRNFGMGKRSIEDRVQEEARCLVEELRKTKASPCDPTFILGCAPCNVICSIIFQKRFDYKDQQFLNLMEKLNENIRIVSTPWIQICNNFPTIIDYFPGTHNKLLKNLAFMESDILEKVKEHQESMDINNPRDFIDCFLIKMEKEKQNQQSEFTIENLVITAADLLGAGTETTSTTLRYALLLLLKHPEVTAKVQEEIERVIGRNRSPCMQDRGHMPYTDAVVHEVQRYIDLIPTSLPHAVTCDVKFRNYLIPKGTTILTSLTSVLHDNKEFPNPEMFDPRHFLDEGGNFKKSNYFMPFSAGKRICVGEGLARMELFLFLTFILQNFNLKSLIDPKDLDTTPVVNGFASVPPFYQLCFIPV

[4] = target: T1, Sentrin-specific protease 7 (Homo sapiens, UniProt Q9BQF6); experiment: inhibition of human SENP7 cleavage activity – biochemical, luminescence, SAR follow-up (AID 504497); format: functional
T1 sequence (Q9BQF6 whole entry): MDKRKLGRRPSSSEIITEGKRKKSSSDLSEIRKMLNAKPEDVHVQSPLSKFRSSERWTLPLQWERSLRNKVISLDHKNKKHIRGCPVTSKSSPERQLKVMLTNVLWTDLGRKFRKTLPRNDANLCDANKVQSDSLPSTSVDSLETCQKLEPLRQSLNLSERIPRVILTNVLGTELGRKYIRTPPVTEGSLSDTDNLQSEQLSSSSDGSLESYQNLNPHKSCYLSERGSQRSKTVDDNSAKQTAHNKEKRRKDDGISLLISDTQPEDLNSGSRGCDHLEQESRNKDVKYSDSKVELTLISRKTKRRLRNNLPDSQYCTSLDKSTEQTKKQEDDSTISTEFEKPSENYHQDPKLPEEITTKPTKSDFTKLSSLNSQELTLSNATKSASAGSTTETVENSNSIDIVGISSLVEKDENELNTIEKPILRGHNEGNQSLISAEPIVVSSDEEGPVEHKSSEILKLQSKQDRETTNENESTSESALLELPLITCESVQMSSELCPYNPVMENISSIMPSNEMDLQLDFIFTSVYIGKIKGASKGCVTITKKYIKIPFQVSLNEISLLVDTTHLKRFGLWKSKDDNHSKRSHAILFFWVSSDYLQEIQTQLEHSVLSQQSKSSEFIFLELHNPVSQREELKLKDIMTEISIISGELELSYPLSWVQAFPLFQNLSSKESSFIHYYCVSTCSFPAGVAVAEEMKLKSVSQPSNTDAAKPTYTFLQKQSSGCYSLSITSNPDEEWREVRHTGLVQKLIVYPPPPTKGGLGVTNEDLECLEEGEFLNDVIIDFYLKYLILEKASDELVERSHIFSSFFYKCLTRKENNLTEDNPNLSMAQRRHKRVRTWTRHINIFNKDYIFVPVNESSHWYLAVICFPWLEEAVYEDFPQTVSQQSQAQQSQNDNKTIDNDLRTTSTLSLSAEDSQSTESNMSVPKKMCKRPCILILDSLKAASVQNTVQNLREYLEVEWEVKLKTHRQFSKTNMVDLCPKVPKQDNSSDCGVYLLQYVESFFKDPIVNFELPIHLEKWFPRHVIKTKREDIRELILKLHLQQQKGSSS

Caspase-3 = target: T2, Caspase-3 (Homo sapiens, UniProt P42574); experiment: SAR Analysis of small molecule inhibitors of Sentrin-specific proteases (SENPs) using a Caspase-3 Selectivity assay. [Related pubchem assays (depositor defined):AID2540, AID2599, AID434973, AID489001]; format: functional
T2 sequence (P42574 whole entry): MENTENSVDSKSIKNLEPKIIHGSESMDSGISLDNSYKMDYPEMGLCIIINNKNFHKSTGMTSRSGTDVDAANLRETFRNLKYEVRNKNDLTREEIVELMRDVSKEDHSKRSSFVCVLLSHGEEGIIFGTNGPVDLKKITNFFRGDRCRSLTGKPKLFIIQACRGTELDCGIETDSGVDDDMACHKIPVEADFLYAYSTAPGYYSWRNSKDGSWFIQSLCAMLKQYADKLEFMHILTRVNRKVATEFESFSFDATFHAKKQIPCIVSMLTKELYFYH

[5] = target: T3, Sentrin-specific protease 8 (Homo sapiens, UniProt Q96LD8); experiment: inhibition of human SENP8 cleavage activity – biochemical, luminescence, SAR follow-up (AID 504501); format: functional
T3 sequence (Q96LD8 whole entry): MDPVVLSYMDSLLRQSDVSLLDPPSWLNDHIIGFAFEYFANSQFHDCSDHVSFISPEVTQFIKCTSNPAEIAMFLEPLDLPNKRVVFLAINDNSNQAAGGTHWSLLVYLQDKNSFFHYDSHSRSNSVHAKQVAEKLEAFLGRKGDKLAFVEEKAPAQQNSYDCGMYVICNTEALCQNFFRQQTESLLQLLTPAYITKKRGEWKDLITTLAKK

[6] = target: T4, Sentrin-specific protease 6 (Homo sapiens, UniProt Q9GZR1); experiment: SAR Analysis of small molecule inhibitors of Sentrin-specific protease 6 (SENP6) using a Luminescent assay. [Related pubchem assays (depositor defined):AID2582, AID2599]; format: functional
T4 sequence (Q9GZR1 whole entry): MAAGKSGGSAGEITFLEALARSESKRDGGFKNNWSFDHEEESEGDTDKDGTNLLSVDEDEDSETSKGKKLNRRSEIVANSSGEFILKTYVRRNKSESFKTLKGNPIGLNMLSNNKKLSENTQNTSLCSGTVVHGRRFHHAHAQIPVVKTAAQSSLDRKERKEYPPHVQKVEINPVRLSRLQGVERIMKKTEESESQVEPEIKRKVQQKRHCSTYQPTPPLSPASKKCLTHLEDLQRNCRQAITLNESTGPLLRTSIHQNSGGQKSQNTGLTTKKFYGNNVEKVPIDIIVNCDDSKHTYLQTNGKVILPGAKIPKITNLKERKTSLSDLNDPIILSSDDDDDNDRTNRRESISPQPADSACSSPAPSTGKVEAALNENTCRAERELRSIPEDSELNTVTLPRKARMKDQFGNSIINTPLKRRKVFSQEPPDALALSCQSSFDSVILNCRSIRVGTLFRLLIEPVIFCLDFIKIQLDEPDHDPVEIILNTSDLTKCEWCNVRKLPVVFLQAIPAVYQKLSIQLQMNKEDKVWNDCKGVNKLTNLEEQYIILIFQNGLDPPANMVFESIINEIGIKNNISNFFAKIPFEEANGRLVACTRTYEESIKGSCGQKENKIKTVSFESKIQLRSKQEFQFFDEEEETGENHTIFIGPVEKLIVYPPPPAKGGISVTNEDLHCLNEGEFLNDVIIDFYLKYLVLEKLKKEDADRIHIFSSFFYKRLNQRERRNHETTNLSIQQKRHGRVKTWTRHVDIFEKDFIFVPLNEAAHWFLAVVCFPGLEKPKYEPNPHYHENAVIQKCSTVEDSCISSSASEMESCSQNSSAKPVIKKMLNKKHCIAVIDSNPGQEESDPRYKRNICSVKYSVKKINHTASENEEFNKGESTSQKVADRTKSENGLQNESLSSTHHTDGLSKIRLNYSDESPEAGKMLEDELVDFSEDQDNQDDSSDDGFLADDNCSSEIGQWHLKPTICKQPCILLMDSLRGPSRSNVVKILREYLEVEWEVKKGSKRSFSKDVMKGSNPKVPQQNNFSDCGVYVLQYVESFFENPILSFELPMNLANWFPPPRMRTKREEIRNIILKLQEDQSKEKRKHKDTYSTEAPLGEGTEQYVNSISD

[7] = target: Latent membrane protein 1 (Human herpesvirus 4 (strain B95-8), UniProt P03230); experiment: LMP1 TES1 pathway selectivity over dsRED control – imaging, HEK293T, dual-color eGFP/dsRED, cherry-picks, selectivity assay for LMP1 NF-kB inhibitor project, dose response (AID 588398); format: functional, cell-based
Latent membrane protein 1, sequence (P03230 whole entry): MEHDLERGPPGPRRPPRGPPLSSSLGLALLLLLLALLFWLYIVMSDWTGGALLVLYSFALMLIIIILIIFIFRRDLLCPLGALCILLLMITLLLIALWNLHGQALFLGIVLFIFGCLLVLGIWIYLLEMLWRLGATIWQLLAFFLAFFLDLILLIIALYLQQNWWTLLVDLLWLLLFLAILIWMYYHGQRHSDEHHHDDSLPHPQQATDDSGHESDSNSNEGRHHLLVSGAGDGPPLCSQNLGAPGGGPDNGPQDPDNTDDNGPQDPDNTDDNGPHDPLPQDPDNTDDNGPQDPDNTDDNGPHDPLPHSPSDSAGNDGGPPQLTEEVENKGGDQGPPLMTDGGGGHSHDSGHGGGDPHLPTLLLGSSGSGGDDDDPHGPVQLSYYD

[8] = target: T5, Corticotropin-releasing factor receptor 2/Corticotropin-releasing factor-binding protein (Homo sapiens, UniProt P24387+Q13324); experiment: activators of CRF receptor 2 with binding protein – uHTS hits, confirmation (AID 602473); format: functional; settings: read-out: EC50_Mean
T5 sequence (Q13324 whole entry): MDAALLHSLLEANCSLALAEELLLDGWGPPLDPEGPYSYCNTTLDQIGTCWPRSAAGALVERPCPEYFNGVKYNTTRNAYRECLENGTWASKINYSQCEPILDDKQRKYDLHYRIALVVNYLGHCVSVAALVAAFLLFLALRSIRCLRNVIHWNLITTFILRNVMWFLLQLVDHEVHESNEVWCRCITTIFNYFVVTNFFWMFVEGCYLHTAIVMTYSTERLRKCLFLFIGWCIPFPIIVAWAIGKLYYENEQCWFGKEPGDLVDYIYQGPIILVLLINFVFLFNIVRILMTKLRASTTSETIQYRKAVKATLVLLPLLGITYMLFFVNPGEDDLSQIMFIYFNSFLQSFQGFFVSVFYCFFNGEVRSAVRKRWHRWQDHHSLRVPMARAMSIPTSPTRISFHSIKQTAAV
T5 sequence (P24387 whole entry): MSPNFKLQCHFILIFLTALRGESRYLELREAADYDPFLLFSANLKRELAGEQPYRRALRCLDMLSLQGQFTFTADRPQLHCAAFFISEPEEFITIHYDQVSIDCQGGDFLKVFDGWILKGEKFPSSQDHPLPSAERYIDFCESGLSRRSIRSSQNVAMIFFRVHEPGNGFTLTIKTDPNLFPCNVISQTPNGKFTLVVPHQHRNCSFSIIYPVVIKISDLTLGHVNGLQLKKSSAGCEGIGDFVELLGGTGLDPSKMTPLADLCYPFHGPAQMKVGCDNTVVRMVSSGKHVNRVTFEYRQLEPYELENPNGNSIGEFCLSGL

[9] = luciferase reporter signal suppression in cells – H4 neuroglioma cells, luminescence, dose response (AID 1990); format: functional, cell-based
[10] = Luminescence Cell-Based Dose Response HTS to Identify Inhibitors of 5'UTR Stem-Loop Driven Prion Protein mRNA Translation in H4 Neuroglioblastoma Cells. [Related pubchem assays: 1827 (Project Summary), 1813 (Primary HTS)]; format: functional
INS1 = experiment: INS-1E survival protection against cytokine death – cell-based, luminescence, retest, dose response (AID 449756); format: functional; settings: Rattus norvegicus;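 further: cell death triggered by IL-1 beta plus TNF-alpha plus IFN-gamma mixture; protective hits raise ATP signal compared with cytokine alone wells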
[11] = alpha-synuclein stem-loop luciferase translation blockers – H4 neuroglioma cells, luminescence, confirmation (AID 1988); format: functional, cell-based
HEK293 = experiment: EBV LMP1 TES2 canonical NF-kB signalling blockers – cell-based, HEK293, luciferase, cherry-pick, dose response (AID 588343); format: functional; settings: Homo sapiens
[12] = MIN6 cell viability loss – mouse insulinoma, cytotoxicity control, dose response (AID 2122); format: functional;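 further: confirmatory high-throughput counterscreen run to flag cytotoxic compounds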
[13] = decrease of insulin promoter-GFP reporter – imaging, high-content screening, mouse beta cells (AID 1628); format: functional; settings: MIN6
[14] = target: T6, Heat shock factor protein 1 (Mus musculus, UniProt P38532); experiment: decrease of HSF1-responsive luciferase luminescence – cell-based, NIH3T3, dose retest, confirmation (AID 2382); format: functional;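 further: NIH3T3 fibroblasts with HSF1-driven luciferase reporter stressed by proteasome inhibitor MG132; luminescence from HSF1-driven luciferase expression after 8 hours of MG132 stress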
T6 sequence (P38532 whole entry): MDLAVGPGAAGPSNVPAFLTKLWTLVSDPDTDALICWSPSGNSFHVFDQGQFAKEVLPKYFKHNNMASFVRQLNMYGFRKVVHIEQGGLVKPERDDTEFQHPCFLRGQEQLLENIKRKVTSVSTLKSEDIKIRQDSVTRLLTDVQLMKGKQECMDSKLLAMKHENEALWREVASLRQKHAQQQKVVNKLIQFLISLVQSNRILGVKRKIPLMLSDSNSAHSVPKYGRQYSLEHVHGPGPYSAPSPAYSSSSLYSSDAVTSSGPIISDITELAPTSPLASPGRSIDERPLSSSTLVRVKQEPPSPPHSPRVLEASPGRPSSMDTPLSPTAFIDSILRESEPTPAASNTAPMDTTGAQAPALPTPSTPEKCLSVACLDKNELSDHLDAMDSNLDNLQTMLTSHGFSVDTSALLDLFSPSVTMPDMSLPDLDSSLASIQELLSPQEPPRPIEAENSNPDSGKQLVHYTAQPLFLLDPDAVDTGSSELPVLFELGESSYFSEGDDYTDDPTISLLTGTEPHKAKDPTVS

Beta-2 adrenergic receptor, sequence (P07550 whole entry): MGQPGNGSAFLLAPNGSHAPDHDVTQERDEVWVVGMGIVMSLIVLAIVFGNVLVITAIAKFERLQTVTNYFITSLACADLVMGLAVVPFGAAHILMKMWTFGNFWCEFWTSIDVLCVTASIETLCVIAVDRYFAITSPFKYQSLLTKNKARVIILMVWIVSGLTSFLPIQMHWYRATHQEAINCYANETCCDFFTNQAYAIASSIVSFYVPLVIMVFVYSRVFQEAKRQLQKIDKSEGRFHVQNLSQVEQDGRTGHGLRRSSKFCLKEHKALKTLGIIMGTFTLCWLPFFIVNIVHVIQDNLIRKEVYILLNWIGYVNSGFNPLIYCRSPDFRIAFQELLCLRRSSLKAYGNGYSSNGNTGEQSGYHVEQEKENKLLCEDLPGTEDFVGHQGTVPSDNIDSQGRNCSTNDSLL

C=CCn1c(CCNC(=O)c2cccs2)nnc1SCC(=O)c1cccc([N+](=O)[O-])c1
EC50 [1]: 0.133 µM (active)

COc1ccccc1-c1cc(C(F)(F)F)nc(S(=O)(=O)CCCC(=O)NC(C)C)n1
EC50 (cells [2]): 51.6 µM (active)
AC50 (Cytochrome P450 2D6): inconclusive
EC50 (cells [3]): > 350 µM (not active)
EC50 [1]: 9.33 µM (active)
AC50 (Cytochrome P450 2C19): 6.31 µM (inconclusive)

CS(=O)(=O)c1ccc(N/N=C/c2cn(Cc3ccccc3)c3ccccc23)cc1
IC50 [4]: > 99 µM (inactive)
IC50 (Caspase-3): > 99 µM (inactive)
IC50 [5]: > 99 µM (inactive)
IC50 [6]: > 99 µM (inactive)

O=c1c([N+](=O)[O-])cn(Cc2ccccc2)c(=O)n1Cc1ccccc1
AC50 [7]: 108 µM (active)
EC50 [8]: > 53 µM (inactive)

O=C(N/N=C/c1ccc[nH]1)c1ccc(COc2cccc3cccnc23)cc1
EC50 [9]: 8.34 µM (active)
AC50 [7]: 9.15 µM (active)
EC50 [10]: > 120 µM (not active)
AC50 (INS1): 1.05 µM (active)
EC50 [11]: 9.79 µM (active)
AC50 (HEK293): 6.13 µM (active)
IC50 [12]: 0.574 µM (active)
IC50 [13]: 0.65 µM (active)
EC50 [14]: 0.16 µM (active)
